For the assay, the target named is Cbl-b (36-427 aa truncated form, N-terminus Avi-tag) (Homo sapiens (Human), UniProt Q13191). The assay is described as follows: Cbl-b binding: TR-FRET displacement of BODIPY-FL probe. As to the method: Compounds were assessed for binding activity to Cbl-b by their ability to compete with and displace a probe comprised of BODIPY-FL fluorophore conjugated to a Cbl-b inhibitor (see Example 54 in WO2020264398). In the assay, a 36-427 aa truncated form of Cbl-b with an N-terminus Avi-tag was incubated 20 mM HEPES pH 7.5, 150 mM NaCl, 0.01% Triton X-100, 0.1% BSA, 0.5 mM TCEP buffer with streptavidin-terbium (Cisbio). After one hour of incubation at room temperature, 1 uM each of fluorescent probe and compound were combined with the reaction mixture. Compounds with Cbl-b binding activity competitively displace the fluorophore tagged inhibitor thereby disrupting the FRET signal from the terbium-BODIPY-FL complex. The reaction mixtures were incubated for one additional hour at room temperature to allow for competition between inhibitor and candidate compounds to occur. The time resolved FRET (TR-FRET) signal was then read at 520/620 […] (excitation/emission) using a Spectramax M5e plate reader (Molecular Devices) to measure probe displacement. Compounds with Cbl-b binding activity had decreased FRET signal owing to disruption of the terbium-BODIPY-FL FRET complex. Standard methods in PRISM were used to calculate the compound IC50 values from the experimental data.
Chain of Cbl-b (36-427 aa truncated form, N-terminus Avi-tag) (Q13191 36-427): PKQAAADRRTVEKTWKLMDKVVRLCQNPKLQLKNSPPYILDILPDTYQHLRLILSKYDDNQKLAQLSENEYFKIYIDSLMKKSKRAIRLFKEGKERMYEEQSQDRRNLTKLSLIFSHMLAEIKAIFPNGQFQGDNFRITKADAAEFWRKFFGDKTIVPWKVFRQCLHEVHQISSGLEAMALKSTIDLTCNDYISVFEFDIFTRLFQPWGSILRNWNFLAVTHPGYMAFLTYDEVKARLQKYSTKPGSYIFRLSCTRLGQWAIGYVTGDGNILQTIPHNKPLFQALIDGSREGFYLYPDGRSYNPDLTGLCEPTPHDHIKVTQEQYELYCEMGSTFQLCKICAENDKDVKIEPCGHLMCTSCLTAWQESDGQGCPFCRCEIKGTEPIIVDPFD

pIC50: −log10 of the molar value.

For orientation: pIC50 means the negative decadic logarithm of the IC50, by convention in mol/L. `CN1CCOC2(CCN(Cc3cc4c(c(C(F)(F)F)c3)CN(c3cc(C5(Cc6nncn6C)COC5)cc(NCCC#N)n3)C4=O)C2)C1` (stereo not shown) [Compound 163, 3-[(4-{3-[(4-methyl-1,2,4-triazol-3-yl)methyl]oxetan-3-yl}-6-[6-({9-methyl-6-oxa-2,9-diazaspiro[4.5]decan-2-yl}methyl)-1-oxo-4-(trifluoromethyl)-3H-isoindol-2-yl]pyridin-2-yl)amino]propanenitrile] showed a pIC50 of 7.70 to 8.30.
`Cn1cnnc1CC1(c2cc(NCCC#N)nc(N3Cc4c(cc(CN5CC[C@@H](CN6CCOCC6)C5)cc4C(F)(F)F)C3=O)c2)COC1` [Compound 165, 3-[(4-{3-[(4-methyl-1,2,4-triazol-3-yl)methyl]oxetan-3-yl}-6-(6-{[(3R)-3-(morpholin-4-ylmethyl)pyrrolidin-1-yl]methyl}-1-oxo-4-(trifluoromethyl)-3H-isoindol-2-yl)pyridin-2-yl)amino]propanenitrile; trifluoroacetic acid] gave a negative-log IC50 (pIC50) of 7.70 to 8.30.
Next, `CCSc1cc(C2(Cc3nncn3C)COC2)cc(N2Cc3c(C(=O)O)cc(CN4CCC[C@H](C)C4)cc3C2=O)n1` [Compound 166, 2-[6-(ethylsulfanyl)-4-{3-[(4-methyl-1,2,4-triazol-3-yl)methyl]oxetan-3-yl}pyridin-2-yl]-6-{[(3S)-3-methylpiperidin-1-yl]methyl}-1-oxo-3H-isoindole-4-carboxylic acid; trifluoroacetic acid]: 7.70 to 8.30; `CCSc1cc(C2(Cc3nncn3C)COC2)cc(N2Cc3c(cc(CN4CCC[C@H](C)C4)cc3-c3nnn[nH]3)C2=O)n1` [Compound 167, 2-[6-(ethylsulfanyl)-4-{3-[(4-methyl-1,2,4-triazol-3-yl)methyl]oxetan-3-yl}pyridin-2-yl]-6-{[(3S)-3-methylpiperidin-1-yl]methyl}-4-(1H-1,2,3,4-tetrazol-5-yl)-3H-isoindol-1-one]: 7.70 to 8.30.
Next, `CC1CC(c2cc(NCCN=[N+]=[N-])nc(N3Cc4c(cc(CN5CCC[C@H](C)C5)cc4C(F)(F)F)C3=O)c2)(c2nncn2C)C1` (stereo partly drawn) [Compound 168, 2-{6-[(2-azidoethyl)amino]-4-[(1r,3s)-3-methyl-1-(4-methyl-1,2,4-triazol-3-yl)cyclobutyl]pyridin-2-yl}-6-{[(3S)-3-methylpiperidin-1-yl]methyl}-4-(trifluoromethyl)-3H-isoindol-1-one]: 7.00 to 7.70; `CCNc1cc([C@]2(c3nncn3C)C[C@H](C)C2)cc(N2Cc3c(cc(CN4CCC[C@H](C)C4)cc3S(C)(=O)=O)C2=O)n1` [Compound 172, 2-[6-(ethylamino)-4-[(1r,3s)-3-methyl-1-(4-methyl-1,2,4-triazol-3-yl)cyclobutyl]pyridin-2-yl]-4-methanesulfonyl-6-{[(3S)-3-methylpiperidin-1-yl]methyl}-3H-isoindol-1-one; trifluoroacetic acid]: 6.00 to 7.00; `C[C@H]1CCCN(Cc2cc(C=O)c3c(c2)C(=O)N(c2cc(C4(Cc5nncn5C)COC4)cc(NCCC#N)n2)C3)C1` [Compound 177, 3-{[6-(4-formyl-6-{[(3S)-3-methylpiperidin-1-yl]methyl}-1-oxo-3H-isoindol-2-yl)-4-{3-[(4-methyl-1,2,4-triazol-3-yl)methyl]oxetan-3-yl}pyridin-2-yl]amino}propanenitrile]: 8.30 to 9.00.
With `CCNc1cc(C2(c3nncn3C)CC(C)C2)cc(N2Cc3c(cc(CN4CCC[C@H](C)C4)cc3[S+](C)[O-])C2=O)n1` (stereo partly drawn) [Compound 178, 2-[6-(ethylamino)-4-[(1r,3s)-3-methyl-1-(4-methyl-1,2,4-triazol-3-yl)cyclobutyl]pyridin-2-yl]-4-methanesulfinyl-6-{[(3S)-3-methylpiperidin-1-yl]methyl}-3H-isoindol-1-one] the figure was 6.00 to 7.00; with `CCNc1cc(C2(Cc3nncn3C)COC2)cc(N2Cc3c(cc(CN4CCC[C@H](C)C4)cc3S(C)(=O)=O)C2=O)n1` [Compound 179, 2-[6-(ethylamino)-4-{3-[(4-methyl-1,2,4-triazol-3-yl)methyl]oxetan-3-yl}pyridin-2-yl]-4-methanesulfonyl-6-{[(3S)-3-methylpiperidin-1-yl]methyl}-3H-isoindol-1-one; formic acid], 6.00 to 7.00; with `CCNc1cc(C2(Cc3nncn3C)COC2)cc(N2Cc3c(cc(CN4CCC[C@H](C)C4)cc3[S+](C)[O-])C2=O)n1` (stereo partly drawn) [Compound 180, 2-[6-(ethylamino)-4-{3-[(4-methyl-1,2,4-triazol-3-yl)methyl]oxetan-3-yl}pyridin-2-yl]-4-methanesulfinyl-6-{[(3S)-3-methylpiperidin-1-yl]methyl}-3H-isoindol-1-one], 6.00 to 7.00.
`Cn1cnnc1CC1(c2cc(NCCC#N)nc(N3Cc4c(cc(CN5CCC6CC(O)CCC6C5)cc4C(F)(F)F)C3=O)c2)COC1` (stereo not shown) [Compound 183, 3-((6-(6-((6-hydroxyoctahydroisoquinolin-2 (1H)-yl)methyl)-1-oxo-4-(trifluoromethyl)isoindolin-2-yl)-4-(3-((4-methyl-4H-1,2,4-triazol-3-yl)methyl)oxetan-3-yl)pyridin-2-yl)amino)propanenitrile; trifluoroacetic acid] gave a pIC50 of 6.00 to 7.00.
Next, `Cn1cnnc1CC1(c2cc(NCCC#N)nc(N3Cc4c(cc(CN5CCN(c6ccccc6O)CC5)cc4C(F)(F)F)C3=O)c2)COC1` [Compound 184, 3-((6-(6-((4-(2-hydroxyphenyl)piperazin-1-yl)methyl)-1-oxo-4-(trifluoromethyl)isoindolin-2-yl)-4-(3-((4-methyl-4H-1,2,4-triazol-3-yl)methyl)oxetan-3-yl)pyridin-2-yl)amino)propanenitrile; trifluoroacetic acid]: 7.70 to 8.30.
Next, `Cn1cnnc1CC1(c2cc(NCCC#N)nc(N3Cc4c(cc(CN5CCc6ccc(O)cc6C5)cc4C(F)(F)F)C3=O)c2)COC1` [Compound 185, 3-((6-(6-((7-hydroxy-3,4-dihydroisoquinolin-2 (1H)-yl)methyl)-1-oxo-4-(trifluoromethyl)isoindolin-2-yl)-4-(3-((4-methyl-4H-1,2,4-triazol-3-yl)methyl)oxetan-3-yl)pyridin-2-yl)amino)propanenitrile; trifluoroacetic acid]: 7.70 to 8.30; `CCNc1cc(C(CO)(CCl)Cc2nncn2C)cc(N2Cc3c(cc(CN4CCC[C@H](C)C4)cc3C(F)(F)F)C2=O)n1` (stereo partly drawn) [Compound 187, 2-(4-(1-chloro-3-hydroxy-2-((4-methyl-4H-1,2,4-triazol-3-yl)methyl)propan-2-yl)-6-(ethylamino)pyridin-2-yl)-6-(((S)-3-methylpiperidin-1-yl)methyl)-4-(trifluoromethyl)isoindolin-1-one; hydrochloric acid]: 7.00 to 7.70.
Next, `CCSc1cc(C(CO)(CCl)Cc2nncn2C)cc(N2Cc3c(cc(CN4CCC[C@H](C)C4)cc3C(F)(F)F)C2=O)n1` (stereo partly drawn) [Compound 188, 2-(4-(1-chloro-3-hydroxy-2-((4-methyl-4H-1,2,4-triazol-3-yl)methyl)propan-2-yl)-6-(ethylthio)pyridin-2-yl)-6-(((S)-3-methylpiperidin-1-yl)methyl)-4-(trifluoromethyl)isoindolin-1-one; hydrochloric acid]: 6.00 to 7.00; `Cn1cnnc1CC1(c2cc(NCCC#N)nc(N3Cc4c(cc(CN5CC6(CCC6O)C5)cc4C(F)(F)F)C3=O)c2)COC1` (stereo not shown) [Compound 189, 3-((6-(6-((5-hydroxy-2-azaspiro[3.3]heptan-2-yl)methyl)-1-oxo-4-(trifluoromethyl)isoindolin-2-yl)-4-(3-((4-methyl-4H-1,2,4-triazol-3-yl)methyl)oxetan-3-yl)pyridin-2-yl)amino)propanenitrile; trifluoroacetic acid]: 7.70 to 8.30.
